Experimental data: patent US20020146823A1, “Method for promoting hematopoietic and mesenchymal cell proliferation and differentiation” (The University of Southern California, priority 1997, published 2002)

Legend:
[1] = tested on: murine peritoneal macrophages; test: Respiratory burst (hydrogen peroxide generation) in murine peritoneal macrophages; type: cell-based; conditions: alone and in response to PMA; 4 hours exposure
Procedure: (§1) The respiratory burst of leukocytes (macrophages and polymorphonuclear neutrophils) is one component of the mediator system used to kill bacteria. As with phagocytosis, the level of this respiratory burst activity in resident macrophages is low. […] Studies were conducted to assess the effect of in vitro exposure of murine or rat peritoneal macrophages and human peripheral blood mononuclear cells (PBMC) to various concentrations of AII on the capacity to generate hydrogen peroxide via the respiratory burst system. For the human studies, five different donors were examined.
(§2) The murine or rat peritoneal cells were harvested by lavage with 5-15 ml of cold PBS with 0.5% bovine serum albumin. The human PBMC were harvested by venipuncture from normal human volunteers and isolated from peripheral blood by Ficoll Hypaque density centrifugation. After isolation, the cells were resuspended at 1×10^6 cells/ml and placed at 100 μl per well into 96 well plates. The cells were incubated with various concentrations of AII or AII analogues and fragments for 4 hours at 37° C. The cells were then preloaded with a fluorescent probe for hydrogen peroxide, 2,7 dichlorofluorescein acetate, which is nonfluorescent in the absence of hydrogen peroxide. […] One hour after stimulation the level of fluorescence produced was measured on a Cytofluor 2350 multiwell fluorometer.

[2] = tested on: enriched HPC from C57B1/6 mice; test: Murine HPC colony formation in semi-solid culture; type: cell-based
Procedure: HPC were harvested from C57B1/6 mice by immunomagnetic affinity chromatography and placed in semi-solid cultures with optimal growth medium. At various times after initiation of culture, the formation of colonies and the size of the colonies (number of cells/colony) were assessed microscopically.
Female C57B1/6 mice were purchased from Simonson and used as a source of bone marrow cells in this study. The bone marrow was harvested, either from untreated mice or from mice injected with 5-fluorouracil (5-FU) (3 mg/mouse; approximately 150 mg/kg) in the tail vein 48 hours before harvest, from the femur and tibia of mice by flushing with phosphate buffered saline (PBS), pH 7.4, containing 2% fetal bovine serum (FBS) with a 21-gauge needle. The eluant from the flushing was centrifuged and the pellet was resuspended at 4×10^7 nucleated cells/ml in PBS containing PBS containing 2% FBS and 5% normal rat serum.
The reagents for immunomagnetic labeling were purchased from Stem Cell Technologies, Inc. (Vancouver, BC). […]

[3] = tested on: murine bone marrow stem cells; conditions: cited from earlier work
[4] = tested on: Rat Peritoneal Macrophages; test: Phagocytic capability of rat peritoneal macrophages (opsonized yeast ingestion); type: cell-based, Sprague Dawley rats
Procedure: Resident peritoneal macrophages have very little phagocytic activity. Exposure of macrophages to inflammatory or activating agents will increase this macrophage function. Resident peritoneal macrophages were harvested from C57B1/6 mice or Sprague Dawley rats and resuspended at a concentration of 1×10^6 cells/ml in phosphate buffered saline (PBS). Five separate 0.5 ml cell aliquots were placed on a glass coverslip in a 35 mm petri dish. Prior to incubation, either 0.5 ml of PBS, AII, or AII analogues or fragments at between 1-1000 ug/ml final concentration was added to the individual cover slips. The dishes containing the cover slips were then incubated at 37° C. for 4 hours, after which the cover slips were washed 3 to 6 times with PBS. Opsonized yeast particles (Sigma Chemical Co.) (yeast opsonized with adult serum from the same species as that under study) were added to the cover slips and incubated for 2 hours, after which the cover slips were again washed with PBS and inverted onto a glass slide. The number of macrophages that ingested yeast and the number of yeast per macrophage ingested was then determined microscopically. At least 100 macrophages per coverslip were counted. The data from this study are summarized in Tables 3 and 4 and FIGS. 1 and 2.

[5] = tested on: rat peritoneal macrophages; test: Respiratory burst (hydrogen peroxide generation) in rat peritoneal macrophages; type: cell-based; conditions: alone and in response to PMA; 4 hours exposure
Procedure: as §1, §2

[6] = tested on: human peripheral blood mononuclear cells (PBMC); test: Respiratory burst (hydrogen peroxide generation) in human PBMC; type: cell-based; conditions: alone and in response to PMA; 4 hours exposure; five donors
Procedure: as §1
The murine or rat peritoneal cells were harvested by lavage with 5-15 ml of cold PBS with 0.5% bovine serum albumin. The human PBMC were harvested by venipuncture from normal human volunteers and isolated from peripheral blood by Ficoll Hypaque density centrifugation. After isolation, the cells were resuspended at 1×10^6 cells/ml and placed at 100 μl per well into 96 well plates. The cells were incubated with various concentrations of AII or AII analogues and fragments for 4 hours at 37° C. The cells were then preloaded with a fluorescent probe for hydrogen peroxide, 2,7 dichlorofluorescein acetate, which is nonfluorescent in the absence of hydrogen peroxide. Fifteen minutes later, 10 ng/ml of phorbol myristate acetate (+PMA) or PBS (−PMA) was added to stimulate the production of hydrogen peroxide. One hour after stimulation the level of fluorescence produced was measured on a Cytofluor 2350 multiwell fluorometer.

Asp-Arg-Val-Tyr-Ile-His-Pro-Phe (DRVYIHPF; printed: Asp-Arg-Val-Tyr-Ile-His-Pro-Phe) [AII, octapeptide present in humans and other species; known pressor agent, commercially available]
ability of leukocytes to generate hydrogen peroxide [1]: increased the ability of leukocytes to generate hydrogen peroxide both alone and in response to stimulation with PMA | HPC colony size ([2]; 0 to 100 μg/ml, normal and 5-FU treated): increases proportionately with exposure to increased concentrations of AII | macroscopic colonies ([2]; day 14, enriched HPC from untreated (normal) mice, 100 μg/ml): 100 | formation of colonies ([3]; absence of exogenous colony stimulating factors): increases the formation of colonies | number and size of colonies formed ([3]; lineage-negative bone marrow cells expressing Sca1): increased the number and size of colonies formed only in the presence of exogenous colony stimulating factors | #/Cell ([4]; peptide 100 μg/ml): 1.14 | % w/Yeast ([4]; peptide 100 μg/ml): 35.7% | Number of Macrophages with Yeast (Yeast Number) 0 ([4]; peptide 100 μg/ml): 90 | Number of Macrophages with Yeast (Yeast Number) 1-3 ([4]; peptide 100 μg/ml): 30 | Number of Macrophages with Yeast (Yeast Number) ≧7 ([4]; peptide 100 μg/ml): 0 | #/Cell ([4]; peptide 1000 μg/ml): 2.86 | % w/Yeast ([4]; peptide 1000 μg/ml): 70.4% | Number of Macrophages with Yeast (Yeast Number) 0 ([4]; peptide 1000 μg/ml): 50 | Number of Macrophages with Yeast (Yeast Number) 1-3 ([4]; peptide 1000 μg/ml): 54 | Number of Macrophages with Yeast (Yeast Number) 4-6 ([4]; peptide 1000 μg/ml): 40 | Number of Macrophages with Yeast (Yeast Number) ≧7 ([4]; peptide 1000 μg/ml): 25 | ability of leukocytes to generate hydrogen peroxide [5]: increased the ability of leukocytes to generate hydrogen peroxide both alone and in response to stimulation with PMA | ability of leukocytes to generate hydrogen peroxide [6]: increased the ability of leukocytes to generate hydrogen peroxide both alone and in response to stimulation with PMA
